Where a name gives a salt, the structure may show the parent alone.
target: T1, recombinant human LTA4 hydrolase (rhLTA4H) (Homo sapiens, UniProt P09960); test: Recombinant human LTA4 hydrolase assay for LTA4 hydrolase inhibitor activity; format: biochemical; conditions: rhLTA4H, LTB4 by immunoassay; single determination or average of two or more; mark after value = form tested: ′ free base, ″ hydrochloride, ^ formate; read-out: IC50
T1 construct: made in house; host or cells: Spodoptera frugiperda (Sf-9) cells, baculovirus (pFastBac1)
T1 sequence (P09960 1-611): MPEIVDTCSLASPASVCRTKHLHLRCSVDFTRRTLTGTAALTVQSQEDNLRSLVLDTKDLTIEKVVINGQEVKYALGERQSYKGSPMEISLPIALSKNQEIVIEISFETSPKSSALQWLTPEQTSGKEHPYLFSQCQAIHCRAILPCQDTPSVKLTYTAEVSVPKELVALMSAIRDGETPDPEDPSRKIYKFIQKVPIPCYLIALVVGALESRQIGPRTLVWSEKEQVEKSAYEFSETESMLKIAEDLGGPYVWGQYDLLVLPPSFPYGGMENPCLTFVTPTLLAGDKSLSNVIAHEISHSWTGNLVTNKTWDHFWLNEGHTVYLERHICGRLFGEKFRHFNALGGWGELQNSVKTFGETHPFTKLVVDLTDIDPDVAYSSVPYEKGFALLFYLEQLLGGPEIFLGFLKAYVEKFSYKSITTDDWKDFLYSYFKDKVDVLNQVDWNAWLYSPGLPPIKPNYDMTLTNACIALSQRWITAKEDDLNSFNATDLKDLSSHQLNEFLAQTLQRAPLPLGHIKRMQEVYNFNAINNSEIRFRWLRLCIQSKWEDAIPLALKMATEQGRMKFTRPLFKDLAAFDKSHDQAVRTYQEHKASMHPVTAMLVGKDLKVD
Protocol: Assay 1: Recombinant Human LTA4 Hydrolase Assay for LTA4 Hydrolase Inhibitor Activity
Compounds of the present invention were tested for LTA4 hydrolase inhibitor activity against recombinant human LTA4 hydrolase (rhLTA4H). Vectors were prepared and used to express rhLTA4H essentially as follows: LTA4 hydrolase encoding DNA was amplified by polymerase chain reaction (PCR) using a human placental cDNA library as a template. […] The amplified 1.9 kb DNA fragment encoding LTA4 hydrolase was isolated and cloned into the pFastBac1 vector (Invitrogen). Recombinant baculovirus was generated as described by the manufacturer, and used to infect Spodoptera frugiperda (Sf-9) cells. […] The purified enzyme solution was adjusted to contain 0.29 mg/mL LTA4 hydrolase, 50 mM Tris (pH 8.0), 150 mM NaCl, 5 mM dithiothreitol, 50% glycerol, and EDTA-free Complete protease inhibitor cocktail (Roche).
LTA4 substrate was prepared from the methyl ester of LTA4 (Cayman Chemical) by treatment with 67 equiv of NaOH under nitrogen at rt for 40 min. The LTA4 substrate in its free acid form was kept frozen at −80° C. until needed. Each compound was diluted to different concentrations in assay buffer (from Assay Designs) containing 10% DMSO. A 25-μL aliquot of each compound dilution was incubated for 10 min at rt with an equal volume of assay buffer containing 10 ng of recombinant human LTA4H. The solution was then adjusted to 200 μL with assay buffer. […] Each reaction was carried out at rt for 30 min. The reaction was stopped by diluting 10 μL of the reaction mixture with 200 μL of assay buffer. LTB4 was quantified in the diluted sample by a commercially available enzyme-linked immunoassay (Cayman Chemical Co.), as recommended by the manufacturer. Positive controls, under essentially identical conditions but without addition of an inhibitor compound, and negative controls, containing all assay components except enzyme, were routinely run in each experiment. IC50 values were determined by nonlinear regression of the activity data at different compound concentrations using Graphpad Prism 4.0, one site binding competition.
The values presented here are the result of a single determination or an average of two or more determinations. Compounds that were not tested are indicated as such by a “NT” designation.

Row | SMILES | IC50 [nM]
1 | CC(=O)N1CCN(Cc2cc3ncc(Oc4nc5ncccc5s4)cc3o2)CC1 [Example 343, 1-{4-[6-(Thiazolo[4,5-b]pyridin-2-yloxy)-furo[3,2-b]pyridin-2-ylmethyl]-piperazin-1-yl}-ethanone formate] | 250
2 | Clc1cnc2nc(Oc3ccc4c(CN5CCOCC5)c[nH]c4c3)sc2c1 [Example 59, 6-Chloro-2-(3-morpholin-4-ylmethyl-1H-indol-6-yloxy)-thiazolo[4,5-b]pyridine] | 111
3 | c1ccc2sc(Oc3ccc4[nH]cc(CN5CCCCC5)c4c3)nc2c1 [Example 10, 2-(3-Piperidin-1-ylmethyl-1H-indol-5-yloxy)-benzothiazole] | 415
4 | CC(=O)N[C@H]1C[C@H]2CC[C@@H](C1)N2Cc1cc2cc(Oc3nc4cnccc4s3)ccc2o1 [Example 200, meso-endo-N-{8-[5-(Thiazolo[4,5-c]pyridin-2-yloxy)-benzofuran-2-ylmethyl]-8-aza-bicyclo[3.2.1]oct-3-yl}-acetamide formate] | 1130
5 | CC(=O)N1C[C@@H]2C[C@H]1CN2Cc1cc2ncc(Oc3nc4ncccc4s3)cc2o1 [Example 274, (1S,4S)-1-{5-[6-(Thiazolo[4,5-b]pyridin-2-yloxy)-furo[3,2-b]pyridin-2-ylmethyl]-2,5-diaza-bicyclo[2.2.1]hept-2-yl}-ethanone formate] | 250
6 | CC(=O)NC1CCN(Cc2cc3ncc(Oc4nc5ncccc5s4)cc3o2)CC1 [Example 273, N-{1-[6-(Thiazolo[4,5-b]pyridin-2-yloxy)-furo[3,2-b]pyridin-2-ylmethyl]-piperidin-4-yl}-acetamide formate] | 160
7 | O=C(O)CN1CCN(Cc2cc3ccc(Oc4nc5ccccc5s4)cc3o2)CC1 [Example 79, {4-[6-(Benzothiazol-2-yloxy)-benzofuran-2-ylmethyl]-piperazin-1-yl}-acetic acid formate] | 460
8 | Fc1cccc2sc(Oc3ccc4oc(CN5CCCCC5)cc4c3)nc12 [Example 84, 4-Fluoro-2-(2-piperidin-1-ylmethyl-benzofuran-5-yloxy)-benzothiazole formate] | 236
9 | c1ccc2sc(Oc3ccc4[nH]cc(CCN5CCCCC5)c4c3)nc2c1 [Example 74, 2-[3-(2-Piperidin-1-yl-ethyl)-1H-indol-5-yloxy]-benzothiazole] | 2030
10 | CC(C)(C)OC(=O)C1CCN(Cc2cc3ccc(Oc4nc5ncccc5s4)cc3o2)CC1 [Example 225, 1-[6-(Thiazolo[4,5-b]pyridin-2-yloxy)-benzofuran-2-ylmethyl]-piperidine-4-carboxylic acid tert-butyl ester] | 765
11 | c1ccc2sc(Oc3ccc4cc(CN5CCCCC5)sc4c3)nc2c1 [Example 132, 2-(2-Piperidin-1-ylmethyl-benzo[b]thiophen-6-yloxy)-benzothiazole] | 720
12 | c1ccc2sc(Oc3ccc4oc(CN5CCCCC5)cc4c3)nc2c1 [Example 82, 2-(2-Piperidin-1-ylmethyl-benzofuran-5-yloxy)-benzothiazole formate] | 190
13 | NC(=O)C1CCN(CCc2c[nH]c3ccc(Oc4nc5ccccc5s4)cc23)CC1 [Example 75, 1-{2-[5-(Benzothiazol-2-yloxy)-1H-indol-3-yl]-ethyl}-piperidine-4-carboxylic acid amide] | 714
14 | NC(=O)N1C[C@H]2CC[C@@H](C1)N2Cc1cc2cc(Oc3nc4ccccc4s3)ccc2o1 [Example 173, meso-8-[5-(Benzothiazol-2-yloxy)-benzofuran-2-ylmethyl]-3,8-diaza-bicyclo[3.2.1]octane-3-carboxylic acid amide] | 187
15 | CC(=O)N[C@H]1C[C@H]2CC[C@@H](C1)N2Cc1cc2ncc(Oc3nc4ncccc4s3)cc2o1 [Example 296, meso-endo-N-{8-[6-(Thiazolo[4,5-b]pyridin-2-yloxy)-furo[3,2-b]pyridin-2-ylmethyl]-8-aza-bicyclo[3.2.1]oct-3-yl}-acetamide formate] | 850

Continued, values first:

Row | IC50 [nM] | SMILES
16 | 194 | c1cnc2nc(Oc3ccc4oc(CN5CCOCC5)cc4c3)sc2c1 [Example 97, 2-(2-Morpholin-4-ylmethyl-benzofuran-5-yloxy)-thiazolo[4,5-b]pyridine]
17 | 1400 | c1ccc2sc(Oc3ccc4[nH]cc(CN5CCOCC5)c4c3)nc2c1 [Example 11, 2-(3-Morpholin-4-ylmethyl-1H-indol-5-yloxy)-benzothiazole]
18 | 84 | CS(=O)(=O)NC1CCN(Cc2cc3ccc(Oc4nc5ncccc5s4)cc3o2)C1 (stereo not drawn) [Example 128, N-(1-{[6-([1,3]thiazolo[4,5-b]pyridin-2-yloxy)-1-benzofuran-2-yl]methyl}pyrrolidin-3-yl)methanesulfonamide formate]
19 | 145 | CC(=O)NC1CCN(Cc2cc3ccc(Oc4nc5ncccc5s4)cc3o2)C1 (stereo not drawn) [Example 120, N-(1-{[6-([1,3]thiazolo[4,5-b]pyridin-2-yloxy)-1-benzofuran-2-yl]methyl}pyrrolidin-3-yl)acetamide formate]
20 | 15 | c1ccc2c(c1)CC(NCc1coc3cc(Oc4nc5ncccc5s4)ccc13)C2 [Example 320, Indan-2-yl-[6-(thiazolo[4,5-b]pyridin-2-yloxy)-benzofuran-3-ylmethyl]-amine formate]
21 | 85 | CC(=O)NCc1coc2cc(Oc3nc4ncccc4s3)ccc12 [Example 395, N-[6-(Thiazolo[4,5-b]pyridin-2-yloxy)-benzofuran-3-ylmethyl]-acetamide]
22 | 160 | CNC(=O)c1coc2cc(Oc3nc4ncccc4s3)ccc12 [Example 367, 6-(Thiazolo[4,5-b]pyridin-2-yloxy)-benzofuran-3-carboxylic acid methylamide]
23 | 19 | c1ccc2c(c1)CCN(Cc1coc3cc(Oc4nc5ncccc5s4)ccc13)C2 [Example 293, 2-[6-(Thiazolo[4,5-b]pyridin-2-yloxy)-benzofuran-3-ylmethyl]-1,2,3,4-tetrahydro-isoquinoline formate]
24 | 110 | CCN(C(=O)c1coc2cc(Oc3nc4ncccc4s3)ccc12)C1CCCCC1 [Example 381, 6-(Thiazolo[4,5-b]pyridin-2-yloxy)-benzofuran-3-carboxylic acid cyclohexyl-ethyl-amide]
25 | 52 | c1ccc(OCCNCc2coc3cc(Oc4nc5ncccc5s4)ccc23)cc1 [Example 319, (2-Phenoxy-ethyl)-[6-(thiazolo[4,5-b]pyridin-2-yloxy)-benzofuran-3-ylmethyl]-amine formate]
26 | 175 | CCOC(=O)C1CCN(Cc2coc3cc(Oc4nc5ccccc5s4)ccc23)CC1 [Example 223, 1-[6-(Benzothiazol-2-yloxy)-benzofuran-3-ylmethyl]-piperidine-4-carboxylic acid ethyl ester]
27 | 281 | FC1CCN(Cc2cc3cc(Oc4nc5ncccc5s4)ccc3o2)CC1 [Example 111, 2-[2-(4-Fluoro-piperidin-1-ylmethyl)-benzofuran-5-yloxy]-thiazolo[4,5-b]pyridine]
28 | 35 | CCN(CC)CCNCc1coc2cc(Oc3nc4ncccc4s3)ccc12 [Example 317, N,N-Diethyl-N′-[6-(thiazolo[4,5-b]pyridin-2-yloxy)-benzofuran-3-ylmethyl]-ethane-1,2-diamine]
29 | 145 | O=C1CCCN1C1CCN(Cc2cc3ccc(Oc4nc5ncccc5s4)cc3o2)CC1 [Example 108, 1-{1-[6-(Thiazolo[4,5-b]pyridin-2-yloxy)-benzofuran-2-ylmethyl]-piperidin-4-yl}-pyrrolidin-2-one formate]
30 | 150 | O=C(c1ccccc1)C1CCN(C(=O)c2coc3cc(Oc4nc5ncccc5s4)ccc23)CC1 [Example 387, (4-Benzoyl-piperidin-1-yl)-[6-(thiazolo[4,5-b]pyridin-2-yloxy)-benzofuran-3-yl]-methanone]

— patent US8399465B2, “Compounds with two fused bicyclic heteroaryl moieties as modulators of leukotriene A4 hydrolase” (Janssen Pharmaceutica NV, priority 2009, dated 2013)
